Source: US12667572B2, “Tricyclic compounds useful in the treatment of cancer, autoimmune and inflammatory disorders” (SCHRÖDINGER, INC., priority 2021, dated 2026)

Tests used:
[1] = system: IL10 secretion in OCI-LY10 cells; experiment: Human IL10 secretion assay, Assay 2 (MSD); format: cell-based; settings: Homo sapiens, 24 h incubation, Meso Scale Discovery, read-out: IL-10 Secretion IC50 [nM] Assay 2
Procedure: IL10 is one of the cytokines that are regulated via activation of NF-kB signaling. For example, in ABC-DLBCL cell lines, the activated NF-kB signaling leads to increased IL10 secretion. Inhibition of NF-kB signaling has been shown leading to decreased IL10 secretion.
Assay 2: OCI-LY10 cells were seeded in IMEM supplemented with 20% fetal bovine serum at 4.8×10^5 cells per 160 μL per well in 96-well V-bottom cell culture plates (corning, 3894), treated with 120 nL of 3-fold serial compound dilutions, starting at 4 mM. The final vehicle concentration was 0.075% DMSO in all wells. After a 24 h incubation, human IL-10 precoated plates (Meso Scale Discovery) were washed 3 times with PBST, and 50 μL culture medium was aspirated into the MSD plate and incubated at 4° C. overnight. The supernatant was then discarded, and the wells were washed 3 times with PB ST. SULFO-TAG Anti-human IL-10 Antibody (50×) was diluted 50-fold according to the Meso Scale Protocol, then 25 μL of SULFO-TAG Anti-human IL-10 Antibody (1×) was added. After 2 h of incubation at RT, the supernatant was discarded, and the well was washed 3 times with PBST. 2×read buffer was added and the signal was read on an MSD Sector S600. The effect of a particular compound on IL10 secretion is shown relative to the effect of DMSO; set as 100%. IC50 values (nM) were determined using 4-parametric curve-fitting.

[2] = molecular target: T1, full-length MALT1 protein His-MALT1(1-824) (Homo sapiens, UniProt Q9UDY8); experiment: MALT1 protease assay, Assay 2 (1 nM MALT1, Ac-LRSR-AMC substrate); format: biochemical; settings: 1 nM MALT1, 50 μM Ac-LRSR-AMC, 2 h pre-incubation, 8 hr incubation at RT
T1 construct: full-length MALT1 protein His-MALT1(1-824); His (N); made in house; host or cells: baculovirus-infected insect cells
T1 sequence (Q9UDY8 1-824): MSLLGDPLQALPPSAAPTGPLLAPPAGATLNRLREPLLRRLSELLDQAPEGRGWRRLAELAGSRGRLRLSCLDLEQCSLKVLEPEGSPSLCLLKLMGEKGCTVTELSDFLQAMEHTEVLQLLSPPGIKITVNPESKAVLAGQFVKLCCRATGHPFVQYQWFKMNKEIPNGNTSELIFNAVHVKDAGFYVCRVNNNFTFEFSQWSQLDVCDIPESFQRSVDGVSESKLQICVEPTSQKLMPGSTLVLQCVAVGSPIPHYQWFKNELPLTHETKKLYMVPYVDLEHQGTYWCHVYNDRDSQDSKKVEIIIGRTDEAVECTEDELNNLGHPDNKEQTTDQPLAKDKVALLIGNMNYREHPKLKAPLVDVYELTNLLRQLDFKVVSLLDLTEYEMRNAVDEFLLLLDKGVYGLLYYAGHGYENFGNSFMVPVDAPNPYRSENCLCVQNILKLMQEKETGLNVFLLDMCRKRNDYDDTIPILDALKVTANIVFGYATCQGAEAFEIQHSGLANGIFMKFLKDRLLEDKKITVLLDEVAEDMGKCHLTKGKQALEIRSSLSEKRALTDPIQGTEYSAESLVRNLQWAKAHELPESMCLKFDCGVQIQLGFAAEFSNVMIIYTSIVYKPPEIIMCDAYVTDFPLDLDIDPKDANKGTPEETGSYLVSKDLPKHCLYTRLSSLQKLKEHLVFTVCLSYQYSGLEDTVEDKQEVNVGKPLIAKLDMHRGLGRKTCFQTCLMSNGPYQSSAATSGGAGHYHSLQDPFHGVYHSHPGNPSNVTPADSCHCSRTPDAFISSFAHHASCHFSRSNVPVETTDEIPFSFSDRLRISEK
Procedure, shortened: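 Full-length His-MALT1(1-824) from baculovirus-infected insect cells, pre-incubated with compound 2 h at RT (0.1% DMSO). Then 50 μM Ac-LRSR-AMC added. Buffer was Tris pH 7.5 with 600 mM sodium citrate, DTT, EDTA and BSA. Fluorescence (ex 355/em 460 nm) was read after 8 h at RT and normalized to high/low controls. IC50 from non-linear regression.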

Compound | IC50 [1] [nM] | IC50 [2] [nM]
C[C@@H](O)c1cnn(-c2ncc(NC(=O)[C@H]3CC4(CCC4)c4c3cnc3cc(Cl)nn43)cc2Cl)n1 (single isomer, unassigned) [Example 160] | 10 to 100 | < 10
CC1(C)CC(C(=O)Nc2cnc(-n3ncc(C4COC4)n3)c(Cl)c2)c2cnc3cc(Cl)nn3c21 (single isomer, unassigned) [Example 111, 2-chloro-N-(5-chloro-6-(4-(oxetan-3-yl)-2H-1,2,3-triazol-2-yl)pyridin-3-yl)-8,8-dimethyl-7,8-dihydro-6H-cyclopenta[e]pyrazolo[1,5-a]pyrimidine-6-carboxamide] | 10 to 100 | < 10
C[C@]1(C(F)(F)F)C[C@H](C(=O)Nc2cnc(-n3nccn3)c(C(F)F)c2)c2cnc3cc(Cl)nn3c21 (single isomer, unassigned) [Example 66, 2-chloro-N-(5-(difluoromethyl)-6-(2H-1,2,3-triazol-2-yl)pyridin-3-yl)-8-methyl-8-(trifluoromethyl)-7,8-dihydro-6H-cyclopenta[e]pyrazolo[1,5-a]pyrimidine-6-carboxamide] | 100 to 1000 | 10 to 100
CC1(C)CC(C(=O)Nc2cc(N=S(C)(C)=O)nc(C(F)(F)F)c2)c2cnc3cc(F)nn3c21 (single isomer, unassigned) [Example 128, N-(2-((dimethyl(oxo)-λ^6-sulfaneylidene)amino)-6-(trifluoromethyl)pyridin-4-yl)-2-fluoro-8,8-dimethyl-7,8-dihydro-6H-cyclopenta[e]pyrazolo[1,5-a]pyrimidine-6-carboxamide] | 100 to 1000 | 10 to 100
CC1(C)CC(C(=O)Nc2cnc(-n3nccn3)c(C(F)(F)F)c2)c2cnn3cc(Cl)nc3c21 (single isomer, unassigned) [Example 193, N-(6-(2H-1,2,3-triazol-2-yl)-5-(trifluoromethyl)pyridin-3-yl)-2-chloro-9,9-dimethyl-8,9-dihydro-7H-cyclopenta[d]imidazo[1,2-b]pyridazine-7-carboxamide] | 10 to 100 | < 10
CN(C(=O)c1ncc(NC(=O)[C@H]2CC(C)(C)c3c2cnc2cc(Cl)nn32)cc1C(F)F)C1CC1 (single isomer, unassigned) [Example 73, 2-chloro-N-(6-(cyclopropyl(methyl)carbamoyl)-5-(difluoromethyl)pyridin-3-yl)-8,8-dimethyl-7,8-dihydro-6H-cyclopenta[e]pyrazolo[1,5-a]pyrimidine-6-carboxamide] | 10 to 100 | < 10
C[C@@]1(C(F)(F)F)C[C@H](C(=O)Nc2cnc(-n3nccn3)c(C(F)F)c2)c2cnc3cc(Cl)nn3c21 (single isomer, unassigned) [Example 64, 2-chloro-N-(5-(difluoromethyl)-6-(2H-1,2,3-triazol-2-yl)pyridin-3-yl)-8-methyl-8-(trifluoromethyl)-7,8-dihydro-6H-cyclopenta[e]pyrazolo[1,5-a]pyrimidine-6-carboxamide] | 100 to 1000 | 10 to 100
CC1(C)CC(C(=O)Nc2cnc(-n3nccn3)c(C(F)(F)F)c2)c2cnc3cc(F)nn3c21 (single isomer, unassigned) [Example 151, N-(6-(2H-1,2,3-triazol-2-yl)-5-(trifluoromethyl)pyridin-3-yl)-2-fluoro-8,8-dimethyl-7,8-dihydro-6H-cyclopenta[e]pyrazolo[1,5-a]pyrimidine-6-carboxamide] | 10 to 100 | < 10
C[C@H](O)c1cnn(-c2ncc(NC(=O)[C@H]3CC(C)(C)c4c3cnc3cc(Cl)nn43)cc2Cl)n1 (single isomer, unassigned) [Example 49, 2-chloro-N-(5-chloro-6-(4-(1-hydroxyethyl)-2H-1,2,3-triazol-2-yl)pyridin-3-yl)-8,8-dimethyl-7,8-dihydro-6H-cyclopenta[e]pyrazolo[1,5-a]pyrimidine-6-carboxamide] | 100 to 1000 | < 10
